# Measurements: ChEMBL document CHEMBL1201861, “Genomics of Drug Sensitity in Cancer screening data, Wellcome Trust Sanger Institute”
# Tests used:
# Assay in all cases: cells
# MeWo = assay type: functional, cell-based, Homo sapiens; settings: Homo sapiens, MeWo;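 further: growth inhibition of MeWo cells, determined by a cell viability readout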
# Description: SANGER: Inhibition of human Mewo cell growth in a cell viability assay.
# MC116 = assay type: functional, cell-based; settings: Homo sapiens;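 further: growth inhibition of MC116 cells, read out with a cell viability assay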
# Description: SANGER: Inhibition of human MC116 cell growth in a cell viability assay.
# MLMA = assay type: functional, cell-based, Homo sapiens; settings: Homo sapiens, MLMA;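 further: growth inhibition of MLMA cells (human), determined through a cell viability readout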
# Description: SANGER: Inhibition of human MLMA cell growth in a cell viability assay.
# NOS-1 = assay type: functional, cell-based, Homo sapiens; settings: Homo sapiens, NOS-1;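 further: growth inhibition of the human NOS-1 cell line, read out with a cell viability assay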
# Description: SANGER: Inhibition of human NOS-1 cell growth in a cell viability assay.
# WM-115 = assay type: functional, cell-based, Homo sapiens; settings: Homo sapiens, WM-115
# Description: SANGER: Inhibition of human WM-115 cell growth in a cell viability assay.
# TCC-SUP = assay type: functional, cell-based, Homo sapiens; settings: Homo sapiens, TCC-SUP;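 further: growth inhibition of TCC-SUP cells, read out with a cell viability assay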
# Description: SANGER: Inhibition of human TCCSUP cell growth in a cell viability assay.
# COR-L105 = assay type: functional, cell-based, Homo sapiens; settings: Homo sapiens, COR-L105;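 further: cell growth inhibition determined with a viability assay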
# Description: SANGER: Inhibition of human COR-L105 cell growth in a cell viability assay.
# LB1047-RCC = assay type: functional, cell-based, Homo sapiens; settings: Homo sapiens, LB1047-RCC;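 further: inhibition of cell growth, determined with a cell viability assay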
# Description: SANGER: Inhibition of human LB1047-RCC cell growth in a cell viability assay.
# KGN = assay type: functional, cell-based, Homo sapiens; settings: Homo sapiens, KGN;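 further: growth inhibition of KGN cells, read out with a cell viability assay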
# Description: SANGER: Inhibition of human KGN cell growth in a cell viability assay.
# HC-1 = assay type: functional, cell-based; settings: Homo sapiens;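 further: growth inhibition of HC-1 cells measured by a cell viability assay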
# Description: SANGER: Inhibition of human HC-1 cell growth in a cell viability assay.
# HCC38 = assay type: functional, cell-based, Homo sapiens; settings: Homo sapiens, HCC38;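 further: cell viability assay on the human HCC38 cell line, with IC50 marking the concentration that inhibits cell growth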
# Description: SANGER: Inhibition of human HCC38 cell growth in a cell viability assay.
# KOSC-2 = assay type: functional, cell-based, Homo sapiens; settings: Homo sapiens, KOSC-2;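 further: growth inhibition of KOSC-2 cells, read out by a cell viability assay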
# Description: SANGER: Inhibition of human KOSC-2 cell growth in a cell viability assay.
# U-118-MG = assay type: functional, cell-based, Homo sapiens; settings: Homo sapiens, U-118-MG
# Description: SANGER: Inhibition of human U-118-MG cell growth in a cell viability assay.
# 8-MG-BA = assay type: functional, cell-based, Homo sapiens; settings: Homo sapiens, 8-MG-BA;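 further: growth inhibition of 8-MG-BA cells, read out with a cell viability assay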
# Description: SANGER: Inhibition of human 8-MG-BA cell growth in a cell viability assay.
# VA-ES-BJ = assay type: functional, cell-based, Homo sapiens; settings: Homo sapiens, VA-ES-BJ;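 further: growth inhibition of the VA-ES-BJ cell line, read out by a cell viability assay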
# Description: SANGER: Inhibition of human VA-ES-BJ cell growth in a cell viability assay.
# MFE-280 = assay type: functional, cell-based, Homo sapiens; settings: Homo sapiens, MFE-280;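 further: growth inhibition of MFE-280 cells, determined with a cell viability readout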
# Description: SANGER: Inhibition of human MFE-280 cell growth in a cell viability assay.
# RXF 393 = assay type: functional, cell-based; settings: Homo sapiens;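 further: growth inhibition of human RXF 393 cells, read out with a cell viability assay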
# Description: SANGER: Inhibition of human RXF393 cell growth in a cell viability assay.
# ES8 = assay type: functional, cell-based, Homo sapiens; settings: Homo sapiens, ES8;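 further: growth inhibition of human ES8 cells, read out with a cell viability assay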
# Description: SANGER: Inhibition of human ES8 cell growth in a cell viability assay.
# CTV-1 = assay type: functional, cell-based; settings: Homo sapiens;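 further: growth inhibition of the cell line, read out with a cell viability assay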
# Description: SANGER: Inhibition of human CTV-1 cell growth in a cell viability assay.
# ML-2 = assay type: functional, cell-based; settings: Homo sapiens;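 further: growth inhibition of ML-2 cells, measured with a cell viability readout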
# Description: SANGER: Inhibition of human ML-2 cell growth in a cell viability assay.
# SH-4 = assay type: functional, cell-based, Homo sapiens; settings: Homo sapiens, SH-4;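 further: growth inhibition of SH-4 cells, read out with a cell viability assay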
# Description: SANGER: Inhibition of human SH-4 cell growth in a cell viability assay.
# HuP-T3 = assay type: functional, cell-based, Homo sapiens; settings: Homo sapiens, HuP-T3;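 further: HuP-T3 cell growth inhibition, read out with a cell viability assay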
# Description: SANGER: Inhibition of human HuP-T3 cell growth in a cell viability assay.
# LB2518-MEL = assay type: functional, cell-based, Homo sapiens; settings: Homo sapiens, LB2518-MEL;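 further: growth inhibition of human LB2518-MEL cells, measured with a cell viability assay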
# Description: SANGER: Inhibition of human LB2518-MEL cell growth in a cell viability assay.
# OVCAR-4 = assay type: functional, cell-based, Homo sapiens; settings: Homo sapiens, OVCAR-4;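 further: growth inhibition of human OVCAR-4 cells, measured with a cell viability assay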
# Description: SANGER: Inhibition of human OVCAR-4 cell growth in a cell viability assay.
# NCI-H226 = assay type: functional, cell-based, Homo sapiens; settings: Homo sapiens, NCI-H226;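 further: cell viability read-out used to gauge growth inhibition of the cells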
# Description: SANGER: Inhibition of human NCI-H226 cell growth in a cell viability assay.
# DMS-273 = assay type: functional, cell-based, Homo sapiens; settings: Homo sapiens, DMS-273
# Description: SANGER: Inhibition of human DMS-273 cell growth in a cell viability assay.
# KS-1 = assay type: functional, cell-based, Homo sapiens; settings: Homo sapiens, KS-1;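 further: growth inhibition of KS-1 cells, read out with a cell viability assay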
# Description: SANGER: Inhibition of human KS-1 cell growth in a cell viability assay.
# MOLT-16 = assay type: functional, cell-based; settings: Homo sapiens;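 further: growth inhibition of human MOLT-16 cells, read out with a cell viability assay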
# Description: SANGER: Inhibition of human MOLT-16 cell growth in a cell viability assay.
# IST-SL1 = assay type: functional, cell-based, Homo sapiens; settings: Homo sapiens, IST-SL1;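 further: growth inhibition of human IST-SL1 cells, read out with a cell viability assay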
# Description: SANGER: Inhibition of human IST-SL1 cell growth in a cell viability assay.
# SiHa = assay type: functional, cell-based, Homo sapiens; settings: Homo sapiens, SiHa;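 further: Viability-based readout of growth inhibition in SiHa cells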
# Description: SANGER: Inhibition of human SiHa cell growth in a cell viability assay.
# KU812 cell line = assay type: functional, cell-based; settings: Homo sapiens;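 further: growth inhibition of KU812 cells, read out with a cell viability assay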
# Description: SANGER: Inhibition of human KU812 cell growth in a cell viability assay.
# HO-1-N-1 = assay type: functional, cell-based, Homo sapiens; settings: Homo sapiens, HO-1-N-1;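 further: growth inhibition of human HO-1-N-1 cells, read out with a cell viability assay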
# Description: SANGER: Inhibition of human HO-1-N-1 cell growth in a cell viability assay.
# IGROV-1 = assay type: functional, cell-based, Homo sapiens; settings: Homo sapiens, IGROV-1;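 further: reduction of IGROV-1 cell growth, read out with a viability assay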
# Description: SANGER: Inhibition of human IGROV-1 cell growth in a cell viability assay.
# EW-13 = assay type: functional, cell-based; settings: Homo sapiens;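 further: growth inhibition of EW-13 cells, read out with a cell viability assay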
# Description: SANGER: Inhibition of human EW-13 cell growth in a cell viability assay.
# OCUB-M = assay type: functional, cell-based, Homo sapiens; settings: Homo sapiens, OCUB-M;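 further: growth inhibition of the cancer cell line, read out through a cell viability assay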
# Description: SANGER: Inhibition of human OCUB-M cell growth in a cell viability assay.
# UO-31 = assay type: functional, cell-based; settings: Homo sapiens;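 further: cell viability assay measuring inhibition of cell growth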
# Description: SANGER: Inhibition of human U031 cell growth in a cell viability assay.
# MZ1-PC = assay type: functional, cell-based, Homo sapiens; settings: Homo sapiens, MZ1-PC;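 further: cell viability assay measuring growth inhibition of human MZ1-PC cells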
# Description: SANGER: Inhibition of human MZ1-PC cell growth in a cell viability assay.
# MPP-89 = assay type: functional, cell-based, Homo sapiens; settings: Homo sapiens, MPP-89;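 further: growth inhibition of human MPP-89 cells, read out with a cell viability assay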
# Description: SANGER: Inhibition of human MPP-89 cell growth in a cell viability assay.
# HH = assay type: functional, cell-based; settings: Homo sapiens
# Description: SANGER: Inhibition of human HH cell growth in a cell viability assay.
# HCC70 = assay type: functional, cell-based, Homo sapiens; settings: Homo sapiens, HCC70;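 further: cell viability assay measuring how strongly the compound suppresses proliferation of HCC70 cells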
# Description: SANGER: Inhibition of human HCC70 cell growth in a cell viability assay.
# KP-N-YS = assay type: functional, cell-based; settings: Homo sapiens;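 further: cell viability assay measuring inhibition of cell line growth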
# Description: SANGER: Inhibition of human KP-N-YS cell growth in a cell viability assay.
# CWR22R = assay type: functional, cell-based, Homo sapiens; settings: Homo sapiens, 22Rv1;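 further: growth inhibition of 22Rv1 cells, read out with a cell viability assay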
# Description: SANGER: Inhibition of human 22RV1 cell growth in a cell viability assay.
# KARPAS-45 = assay type: functional, cell-based; settings: Homo sapiens;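 further: inhibition of cell line growth, read out through a viability assay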
# Description: SANGER: Inhibition of human KARPAS-45 cell growth in a cell viability assay.
# SKG-IIIa = assay type: functional, cell-based, Homo sapiens; settings: Homo sapiens, SKG-IIIa;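 further: cell growth inhibition, read out with a cell viability assay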
# Description: SANGER: Inhibition of human SKG-IIIa cell growth in a cell viability assay.
# NCI-H292 = assay type: functional, cell-based, Homo sapiens; settings: Homo sapiens, NCI-H292;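 further: growth inhibition of NCI-H292 cells, read out with a cell viability assay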
# Description: SANGER: Inhibition of human NCI-H292 cell growth in a cell viability assay.
# CHP-212 = assay type: functional, cell-based, Homo sapiens; settings: Homo sapiens, CHP-212
# Description: SANGER: Inhibition of human CHP-212 cell growth in a cell viability assay.
# NCI-H510A = assay type: functional, cell-based; settings: Homo sapiens;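 further: growth inhibition of NCI-H510A cells, read out with a cell viability assay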
# Description: SANGER: Inhibition of human NCI-H510A cell growth in a cell viability assay.
# SF-295 = assay type: functional, cell-based, Homo sapiens; settings: Homo sapiens, SF-295; read-out: IC50;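 further: growth inhibition of SF-295 cells, read out with a cell viability assay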
# Description: SANGER: Inhibition of human SF295 cell growth in a cell viability assay.
# NOMO-1 = assay type: functional, cell-based; settings: Homo sapiens;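 further: growth inhibition of human NOMO-1 cells measured by a cell viability assay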
# Description: SANGER: Inhibition of human NOMO-1 cell growth in a cell viability assay.
# SNU-449 = assay type: functional, cell-based, Homo sapiens; settings: Homo sapiens, SNU-449
# Description: SANGER: Inhibition of human SNU-449 cell growth in a cell viability assay.
# KE-37 = assay type: functional, cell-based; settings: Homo sapiens;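 further: growth inhibition of KE-37 cells, read out with a cell viability assay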
# Description: SANGER: Inhibition of human KE-37 cell growth in a cell viability assay.
# 5637 = assay type: functional, cell-based, Homo sapiens; settings: Homo sapiens
# Description: SANGER: Inhibition of human 5637 cell growth in a cell viability assay.
# OS-RC-2 = assay type: functional, cell-based, Homo sapiens; settings: Homo sapiens, OS-RC-2;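 further: growth inhibition of human OS-RC-2 cells, measured by a cell viability assay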
# Description: SANGER: Inhibition of human OS-RC-2 cell growth in a cell viability assay.
structure (smiles),measurement,setting,value
C=CCc1cccc(/C=N/NC(=O)CN2CCN(Cc3ccccc3)CC2)c1O [PAC-1],IC50,MeWo,> 2.56 µM
same,IC50,MC116,1.21 µM
same,IC50,MLMA,> 2.56 µM
same,IC50,NOS-1,> 2.56 µM
same,IC50,WM-115,> 2.56 µM
same,IC50,TCC-SUP,> 2.56 µM
same,IC50,COR-L105,> 2.56 µM
same,IC50,LB1047-RCC,> 2.56 µM
same,IC50,KGN,2.15 µM
same,IC50,HC-1,1.86 µM
same,IC50,HCC38,> 2.56 µM
same,IC50,KOSC-2,> 2.56 µM
same,IC50,U-118-MG,> 2.56 µM
same,IC50,8-MG-BA,> 2.56 µM
same,IC50,VA-ES-BJ,> 2.56 µM
same,IC50,MFE-280,> 2.56 µM
same,IC50,RXF 393,> 2.56 µM
same,IC50,ES8,> 2.56 µM
same,IC50,CTV-1,1.96 µM
same,IC50,ML-2,> 2.56 µM
same,IC50,SH-4,> 2.56 µM
same,IC50,HuP-T3,> 2.56 µM
same,IC50,LB2518-MEL,> 2.56 µM
same,IC50,OVCAR-4,> 2.56 µM
same,IC50,NCI-H226,> 2.56 µM
same,IC50,DMS-273,> 2.56 µM
same,IC50,KS-1,> 2.56 µM
same,IC50,MOLT-16,> 2.56 µM
same,IC50,IST-SL1,> 2.56 µM
same,IC50,SiHa,> 2.56 µM
same,IC50,KU812 cell line,> 2.56 µM
same,IC50,HO-1-N-1,> 2.56 µM
same,IC50,IGROV-1,1.34 µM
same,IC50,EW-13,> 2.56 µM
same,IC50,OCUB-M,> 2.56 µM
same,IC50,UO-31,1.51 µM
same,IC50,MZ1-PC,> 2.56 µM
same,IC50,MPP-89,> 2.56 µM
same,IC50,HH,> 2.56 µM
same,IC50,HCC70,> 2.56 µM
same,IC50,KP-N-YS,> 2.56 µM
same,IC50,CWR22R,> 2.56 µM
same,IC50,KARPAS-45,> 2.56 µM
same,IC50,SKG-IIIa,> 2.56 µM
same,IC50,NCI-H292,> 2.56 µM
same,IC50,CHP-212,> 2.56 µM
same,IC50,NCI-H510A,> 2.56 µM
same,IC50,SF-295,> 2.56 µM
same,IC50,NOMO-1,> 2.56 µM
same,IC50,SNU-449,> 2.56 µM
same,IC50,KE-37,0.215 µM
same,IC50,5637,> 2.56 µM
same,IC50,OS-RC-2,> 2.56 µM
